“And” between values parts separate entries of the source, which are not always exact repeats. Identical values can stand only once. Like-named read-outs stand apart in the source and are kept apart here.
Experiments:
Test in all cases: MTT assay for 7-day toxicity assay
Type in all cases: cell-based
Glioma U373M (MGMT+) = details: Glioma U373M (MGMT+)
Experimental: (§1) The cell culture techniques were carried out in a Class II microbiological safety cabinet which was swabbed with 70% IMS in distilled water before each use. […] MRC-5 cells were cultured in EMEM. Cells were grown in a humidified incubator containing 5% CO2 at 37° C. Cells were sub-cultured when growth exceeded approximately 80% confluence, normally twice weekly. The medium was aspirated from the flask and approximately 0.8 mL trypsin-EDTA 1× solution added. The cells were re-incubated at 37° C. until they visibly detached from the flask. The cell suspension was then re-suspended in 5 mL medium and 0.5-1 mL of the cell suspension was transferred to a new flask (25 cm^2) with 7 mL culture medium. The cells were further incubated at 37° C. incubator. Cells were disposed after passage nearly 30 times in order to minimize phenotypic drift. New batches of cells were taken from liquid nitrogen storage by thawing rapidly (37° C. water bath) and re-suspension in a 25 cm^2 flask with 10 mL of culture medium. Two passages were allowed to resume normal growth. For long-term maintenance, viable cells at 60-80% confluence were detached by minimum amount of trypsin/EDTA and re-suspended in sterile filtered freezing medium (95% FBS, 5% DMSO), transferred to sterile cryogenic vials, and frozen overnight at −20° C. followed by −80° C. for 1-2 days and stored in liquid nitrogen for long term storage.
(§2) Most test compounds, including temozolomide, were prepared as stock solution (100 mM) in DMSO and stored at −20° C. for not more than 6 months.
(§3) Glioma cell lines, SNB19 and U373, both MGMT transfected (i.e., SNB19M and U373M) and vector controls (i.e., SNB19V and U373V); colorectal carcinoma cell lines, HCT116, HT29, and DLD1; melanoma cell line, SKMEL-28; breast cell line, MCF-7; and normal human fetal lung fibroblast cell line, MRC-5; were harvested at 60-80% confluence—during the logarithmic phase of growth.
(§4) Following harvesting, cells in suspension were gently syringed through a 23 gauge needle to obtain a near-single cell suspension. The desired cell seeding densities were used and added into 96-well plates in 180 μL culture medium if only one test compound was to be added, or 160 μL if two test compounds were to be added in combination, which were allowed to attach at 37° C. (5% CO2) overnight. For the 7 day assay, the cell seeding density for different cell lines was as follows: SNB19V, SNB19M: 650 cells/well; U373V, U373M: 650 cells/well; SNB19VR, U373VR: 650 cells/well; HCT116, DLD-1, SKMEL-28, MRC-5, MCF-7: 400 cells/well.
(§5) The two peripheral lanes were used as blank wells (cell free) and filled with 200 μL of medium in order to minimise medium evaporation from the plate. A separate time zero (T0) plate was set up alongside other plates. Serial dilutions in tissue culture medium of a 100 mM stock of test compound in DMSO were prepared immediately before each assay to ten times the final concentrations required, and then 20 μL was added to each well (200 μL total media per well) to achieve final concentrations of 0.5 μM, 1 μM, 5 μM, 10 μM, 50 μM, 100 μM, 500 μM, and 1000 μM. A minimum of four wells received the same test compound concentration. To control wells, including those in the T0 plate, 20 μL of medium was added. […] A separate plate treated in the same way, but free of test compound, was used as a measure of cell viability at the time of drug addition (day 0).
(§6) After incubation at 37° C., 5% CO2 for 7 days (or immediately for the day 0 plate), cell viability was quantified using the MTT assay. 50 μL of sterile filtered MIT (3-(4,5-dimethylthiazol-2-yl)-2,5-diphenyltetrazolium bromide) (2 mg/mL in phosphate buffered saline) were added to each well (final concentration 0.4 mg/mL) and the plates were re-incubated for 4 hours to allow metabolic conversion of MTT by dehydrogenases in viable cells to insoluble formazan crystals.
(§7) The intensity of absorbance is directly proportional to cell viability.

Glioma U373V (MGMT low) = details: Glioma U373V (MGMT low)
Experimental: as §1, §2, §3, §4, §5, §6, §7

Glioma SNB19V (MGMT−) = details: Glioma SNB19V (MGMT−)
Experimental: as §1, §2, §3, §4, §5, §6, §7

Glioma SNB19M (MGMT+) = details: Glioma SNB19M (MGMT+)
Experimental: as §1, §2, §3, §4, §5, §6, §7

[1] = 168 h, 7-day MTT, single determinations, read-out: GI50
[2] = 7-day MTT, single determinations, read-out: GI50

## CN(C)C(=O)Cn1nnc2c(C(N)=O)ncn2c1=O [JJ-003, N,N-Dimethyl (8-Carbamoyl-oxoimidazo[5,1-d][1,2,3,5]tetrazin-3(4H)-yl)ethanamide]
Glioma U373M (MGMT+); [1]
  GI50: 98.6 µM
Glioma U373M (MGMT+); [2]
  GI50: 86.4 µM
Glioma U373V (MGMT low); [1]
  GI50: 92.4 µM
Glioma U373V (MGMT low); [2]
  GI50: 77.8 µM
Glioma SNB19V (MGMT−); [1]
  GI50: 73.6 µM
Glioma SNB19V (MGMT−); [2]
  GI50: 61.8 µM
Glioma SNB19M (MGMT+); [1]
  GI50: 78.6 µM
Glioma SNB19M (MGMT+); [2]
  GI50: 68.1 µM

## NC(=O)c1ncn2c(=O)n(CCO)nnc12 [NN-002, 3-(2-Hydroxyethyl)-4-oxo-3,4-dihydroimidazo[5,1-d][1,2,3,5]tetrazine-8-carboxamide]
Glioma U373M (MGMT+)
  GI50: 248 µM and 398 µM
Glioma U373V (MGMT low)
  GI50: 209 µM and 368 µM
Glioma SNB19V (MGMT−)
  GI50: 200 µM and 210 µM
Glioma SNB19M (MGMT+)
  GI50: 396 µM and 437 µM

## NC(=O)c1ncn2c(=O)n(C3CC3)nnc12 [FF-002, 3-Cyclopropyl-8-carbamoylimidazotetrazin-4-one]
Glioma U373M (MGMT+); [1]
  GI50: 369 µM
Glioma U373M (MGMT+); [2]
  GI50: 346 µM and 367 µM
Glioma U373V (MGMT low); [1]
  GI50: 293 µM
Glioma U373V (MGMT low); [2]
  GI50: 386 µM and 241 µM
Glioma SNB19V (MGMT−); [1]
  GI50: 516 µM
Glioma SNB19V (MGMT−); [2]
  GI50: 376 µM and 392 µM
Glioma SNB19M (MGMT+); [1]
  GI50: 593 µM
Glioma SNB19M (MGMT+); [2]
  GI50: 637 µM and 418 µM

## C[Si](C)(C)C#CCn1nnc2c(C(N)=O)ncn2c1=O [EE-003, 4-Oxo-3-(3-trimethylsilanyl-prop-2-ynyl)-3,4-dihydro-imidazo[5,1-d][1,2,3,5]tetrazine-8-carboxylic acid amide]
Glioma U373M (MGMT+); [1]
  GI50: 31.5 µM
Glioma U373M (MGMT+); [2]
  GI50: 30 µM
Glioma U373V (MGMT low); [1]
  GI50: 26.8 µM
Glioma U373V (MGMT low); [2]
  GI50: 33.6 µM
Glioma SNB19V (MGMT−); [1]
  GI50: 41.7 µM
Glioma SNB19V (MGMT−); [2]
  GI50: 36.6 µM
Glioma SNB19M (MGMT+); [1]
  GI50: 42.9 µM
Glioma SNB19M (MGMT+); [2]
  GI50: 35.2 µM

## NC(=O)c1ncn2c(=O)n(C3CCCC3)nnc12 [FF-001, 3-Cyclopentyl-8-carbamoylimidazotetrazin-4-one]
Glioma U373M (MGMT+); [1]
  GI50: 228 µM
Glioma U373M (MGMT+); [2]
  GI50: 204 µM
Glioma U373V (MGMT low); [1]
  GI50: 169 µM
Glioma U373V (MGMT low); [2]
  GI50: 163 µM
Glioma SNB19V (MGMT−); [1]
  GI50: 318 µM
Glioma SNB19V (MGMT−); [2]
  GI50: 266 µM
Glioma SNB19M (MGMT+); [1]
  GI50: 292 µM
Glioma SNB19M (MGMT+); [2]
  GI50: 238 µM

## CC(C)(C)[Si](C)(C)OCCn1nnc2c(C(N)=O)ncn2c1=O [NN-001, 3-(2-(tert-Butyldimethylsilyloxy)ethyl)-4-oxo-3,4-dihydroimidazo[5,1-d][1,2,3,5]tetrazine-8-carboxamide]
Glioma U373M (MGMT+)
  GI50: 98.2 µM and 68.3 µM
Glioma U373V (MGMT low)
  GI50: 172 µM and 229 µM
Glioma SNB19V (MGMT−)
  GI50: 128 µM and 97 µM
Glioma SNB19M (MGMT+)
  GI50: 182 µM and 263 µM

## NC(=O)c1ncn2c(=O)n(CC3CCCC3)nnc12 [GG-002, 3-(Cyclopentyl)methyl-8-carbamoylimidazotetrazin-4-one]
Glioma U373M (MGMT+); [1]
  GI50: 642 µM
Glioma U373M (MGMT+); [2]
  GI50: 728 µM
Glioma U373V (MGMT low); [1]
  GI50: 790 µM
Glioma U373V (MGMT low); [2]
  GI50: > 1000 µM
Glioma SNB19V (MGMT−); [1]
  GI50: 888 µM
Glioma SNB19V (MGMT−); [2]
  GI50: 751 µM
Glioma SNB19M (MGMT+); [1]
  GI50: 796 µM
Glioma SNB19M (MGMT+); [2]
  GI50: 602 µM

## NC(=O)c1ncn2c(=O)n(Cc3cccs3)nnc12 [CC-002, 4-oxo-3-(thiophen-2-ylmethyl)-3,4-dihydroimidazo[5,1-d][1,2,3,5]tetrazine-8-carboxamide]
Glioma U373M (MGMT+); [1]
  GI50: 96.8 µM
Glioma U373M (MGMT+); [2]
  GI50: 52.2 µM
Glioma U373V (MGMT low); [1]
  GI50: 149 µM
Glioma U373V (MGMT low); [2]
  GI50: 81.4 µM
Glioma SNB19V (MGMT−); [1]
  GI50: 76.7 µM
Glioma SNB19V (MGMT−); [2]
  GI50: 52 µM
Glioma SNB19M (MGMT+); [1]
  GI50: 63.6 µM
Glioma SNB19M (MGMT+); [2]
  GI50: 54.7 µM

## CC(C)n1nnc2c(C(N)=O)ncn2c1=O [PP-001, 3-Isopropyl-8-carbamoylimidazotetrazin-4-one]
Glioma U373M (MGMT+); read-out: GI50
  GI50: 427 µM and 657 µM
Glioma U373V (MGMT low); read-out: GI50
  GI50: 387 µM and 580 µM
Glioma SNB19V (MGMT−); read-out: GI50
  GI50: > 1000 µM
Glioma SNB19M (MGMT+); read-out: GI50
  GI50: > 1000 µM and 753 µM

## COc1ccc(Cn2nnc3c(C(N)=O)ncn3c2=O)cc1OC [AA-005, 3-(3,4-dimethoxybenzyl)-4-oxo-3,4-dihydroimidazo[5,1-d][1,2,3,5]tetrazine-8-carboxamide]
Glioma U373M (MGMT+); [1]
  GI50: 301 µM
Glioma U373M (MGMT+); [2]
  GI50: 224 µM
Glioma U373V (MGMT low); [1]
  GI50: 197 µM
Glioma U373V (MGMT low); [2]
  GI50: 259 µM
Glioma SNB19V (MGMT−); [1]
  GI50: 218 µM
Glioma SNB19V (MGMT−); [2]
  GI50: 114 µM
Glioma SNB19M (MGMT+); [1]
  GI50: 282 µM
Glioma SNB19M (MGMT+); [2]
  GI50: 232 µM

## CC(=O)OCn1nnc2c(C(N)=O)ncn2c1=O [LL-005]
Glioma U373M (MGMT+); [1]
  GI50: 45.6 µM
Glioma U373M (MGMT+); [2]
  GI50: 33.3 µM
Glioma U373V (MGMT low); [1]
  GI50: 15.7 µM
Glioma U373V (MGMT low); [2]
  GI50: 8 µM
Glioma SNB19V (MGMT−); [1]
  GI50: 56.6 µM
Glioma SNB19V (MGMT−); [2]
  GI50: 40.1 µM
Glioma SNB19M (MGMT+); [1]
  GI50: 46 µM
Glioma SNB19M (MGMT+); [2]
  GI50: 34.7 µM

## NC(=O)c1ncn2c(=O)n(CC(=O)N3CCOCC3)nnc12 [JJ-005, N-(8-Carbamoyl-oxoimidazo[5,1-d][1,2,3,5]tetrazin-3(4H)-yl)ethanoyl morpholine]
Glioma U373M (MGMT+); [1]
  GI50: 90.4 µM
Glioma U373M (MGMT+); [2]
  GI50: 173 µM
Glioma U373V (MGMT low); [1]
  GI50: 195 µM
Glioma U373V (MGMT low); [2]
  GI50: 291 µM
Glioma SNB19V (MGMT−); [1]
  GI50: 70.3 µM
Glioma SNB19V (MGMT−); [2]
  GI50: 52.4 µM
Glioma SNB19M (MGMT+); [1]
  GI50: 119 µM
Glioma SNB19M (MGMT+); [2]
  GI50: 84.9 µM

## NC(=O)c1ncn2c(=O)n(Cc3ccsc3)nnc12 [CC-001, 4-oxo-3-(thiophen-3-ylmethyl)-3,4-dihydroimidazo[5,1-d][1,2,3,5]tetrazine-8-carboxamide]
Glioma U373M (MGMT+); [1]
  GI50: 198 µM
Glioma U373M (MGMT+); [2]
  GI50: 232 µM
Glioma U373V (MGMT low); [1]
  GI50: 206 µM
Glioma U373V (MGMT low); [2]
  GI50: 160 µM
Glioma SNB19V (MGMT−); [1]
  GI50: 79.6 µM
Glioma SNB19V (MGMT−); [2]
  GI50: 117 µM
Glioma SNB19M (MGMT+); [1]
  GI50: 208 µM
Glioma SNB19M (MGMT+); [2]
  GI50: 135 µM

Reference: patent US8450479B2, “3-substituted-4-oxo-3,4-dihydro-imidazo[5,1-d][1,2,3,5-tetrazine-8-carboxylic acid amides and their use” (Pharminox Limited, priority 2007, dated 2013)
